From patent publication US20220213099A1, “PRODRUG COMPOUNDS” (BRISTOL-MYERS SQUIBB COMPANY, priority 2019, published 2022)
≈ marks a conversion by molar mass, not a printed value. Counter-ions that a name gives are not always drawn. Like-named read-outs stand apart in the source and are kept apart here.

Tests used:
[1] = Solubility evaluation in aqueous buffer; assay type: physicochemical; conditions: aqueous buffer, 25 °C, thermodynamic from solid, about 24 hours equilibration
Protocol: The solid powder of an individual prodrug was equilibrated in aqueous buffers of pH 1, 4 and 6.5 at 25° C. for about 24 hours. After equilibration, the excess solid was separated by filtration using 0.45 μm membrane filter and the filtrate was collected in suitable glass vial. The filtrate was diluted appropriately using respective buffers/diluent and analyzed by a reversed phase LC method with UV detection.

[2] = Stability evaluation in aqueous buffer; assay type: physicochemical; conditions: aqueous buffer, 37° C., about 50 μg/mL, about 15% v/v acetonitrile
Protocol: The stability study of an individual prodrug was conducted with about 50 μg/mL solutions in aqueous buffers of pH 1 (0.1 M HCl), 4 (acetate buffer) and 6.5 (phosphate buffer) at 37° C. for 24 hours. About 15% v/v acetonitrile was used in these pH buffers as a co-solvent to obtain clear solutions of prodrugs. The sample analysis was carried out using a generic reversed phase liquid chromatographic (LC) method with UV detection. The area percent (AP) loss of the prodrug peak was quantified as a function of time. The appearance of parent peak was identified from the chromatographic retention time. The half-life (t1/2, h) of the prodrug was calculated by using a pseudo-first order equation from a AP loss vs time plot.

[3] = test system: rat rIALP; test: Recombinant intestinal alkaline phosphatase (rIALP) assay, rat; assay type: in vitro ADME; conditions: 100 mM Tris-HCl buffer pH 7.4, 37° C., 120 minutes incubation, read-out: t1/2 in rat rIALP
Protocol: (§1) Examples 8 and 9 were evaluated in this assay. To assess the potential for generation of parent drug from the phosphate prodrugs, 100 μL of rIALP was dissolved in 100 mM Tris-HCl buffer (pH 7.4) and it was added to 100 μL of freshly prepared prodrug solution (10 mM) prepared in the same buffer. Incubations were performed in triplicate using 96-well plates (Waters, Milford, Mass.) at 37° C. in a shaking water bath (Julabo, Allentown, Pa.). The prodrug and enzyme solution were pre-warmed at 37° C. before the reaction was initiated by addition of substrate. The incubation was performed for 120 minutes with […] taken at 0, 5, 10, 15, 30, 60, 90, and 120 minutes. The assays were terminated at designated time points by the addition of 200 μL of ice-cold acetonitrile containing internal standard followed by centrifugation at 4000 g for 4 minutes. The supernatant was transferred to a new 96-well plate for analysis by ultra-performance liquid chromatography combined with tandem mass spectrometry (UPLC-MS/MS). The t1/2 value for each prodrug/protein combination was determined from the natural logarithm of percent remaining versus time plots.

[4] = biological target: T1, human rIALP (Homo sapiens, UniProt P09923); test: Recombinant intestinal alkaline phosphatase (rIALP) assay, human; assay type: in vitro ADME; conditions: 100 mM Tris-HCl buffer pH 7.4, 37° C., 120 minutes incubation, read-out: t1/2 in human rIALP
T1 sequence (P09923 20-503 limits assumed): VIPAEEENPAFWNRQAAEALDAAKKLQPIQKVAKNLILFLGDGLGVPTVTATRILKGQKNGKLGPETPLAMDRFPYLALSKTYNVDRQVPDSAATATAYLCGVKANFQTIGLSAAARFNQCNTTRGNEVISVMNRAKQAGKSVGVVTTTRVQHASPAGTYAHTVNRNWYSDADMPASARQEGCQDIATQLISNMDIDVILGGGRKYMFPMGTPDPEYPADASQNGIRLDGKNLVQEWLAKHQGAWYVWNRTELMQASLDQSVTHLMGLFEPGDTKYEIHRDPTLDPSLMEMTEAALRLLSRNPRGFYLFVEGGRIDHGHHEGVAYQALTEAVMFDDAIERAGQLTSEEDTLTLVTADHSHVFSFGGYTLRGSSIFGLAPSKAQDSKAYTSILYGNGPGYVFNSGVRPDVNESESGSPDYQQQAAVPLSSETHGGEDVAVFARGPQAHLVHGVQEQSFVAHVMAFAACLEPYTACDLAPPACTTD
Protocol: as §1

[5] = pH 1, simulated gastric fluid, aqueous buffer pH 1, 25° C., read-out: Solubility (mg/mL) at 25° C. pH 1
[6] = pH 4, aqueous buffer, aqueous buffer pH 4, 25° C., read-out: Solubility (mg/mL) at 25° C. pH 4
[7] = pH 6.5, aqueous buffer, aqueous buffer pH 6.5, 25° C., read-out: Solubility (mg/mL) at 25° C. pH 6.5
[8] = pH 1, pH 1 (0.1 M HCl), read-out: Stability (t1/2, h) at 37° C. pH 1 (converted)
[9] = pH 4, pH 4 (acetate buffer), read-out: Stability (t1/2, h) at 37° C. pH 4 (converted)
[10] = pH 6.5, pH 6.5 (phosphate buffer), read-out: Stability (t1/2, h) at 37° C. pH 6.5 (converted)

Row | SMILES | solubility [1, 5] | solubility [1, 6] | solubility [1, 7] | half-life [2, 8] | half-life [2, 9] | half-life [2, 10] | half-life at 5 mM [3] | half-life at 5 mM [4]
1 | Cc1c(-c2[nH]c3ccc(C4CCN(CC(N)=O)CC4)cc3c2C(C)C)cn2nc[n+](COP(=O)(O)O)c2c1C (single isomer, unassigned) [Example 8, 6-(5-(1-(2-Amino-2-oxoethyl)piperidin-4-yl)-3-isopropyl-1H-indol-2-yl)-7,8-dimethyl-1-((phosphonooxy)methyl)-[1,2,4]triazolo[1,5-a]pyridin-1-ium trifluoroacetate] | > 0.86 mg/mL | 0.03 mg/mL | 0.86 mg/mL | > 500 h | > 500 h | > 500 h | < 0.00347 days | < 0.00694 days
2 | Cc1c(-c2[nH]c3ccc(C4CC[N+](COP(=O)(O)O)(CC(N)=O)CC4)cc3c2C(C)C)cn2ncnc2c1C (single isomer, unassigned) [Example 9, 1-(2-Amino-2-oxoethyl)-4-(2-(7,8-dimethyl-[1,2,4]triazolo[1,5-a]pyridin-6-yl)-3-isopropyl-1H-indol-5-yl)-1-((phosphonooxy)methyl)piperidin-1-ium trifluoroacetate] | > 1.14 mg/mL | 0.85 mg/mL | 1.34 mg/mL | > 500 h | > 500 h | > 500 h | < 0.00347 days | < 0.00347 days
3 | CCOC(=O)n1c(-c2cn3ncnc3c(C)c2C)c(C(C)C)c2cc(C3CCN(CC(N)=O)CC3)ccc21 [Example 24, Ethyl 5-(1-(2-amino-2-oxoethyl)piperidin-4-yl)-2-(7,8-dimethyl-[1,2,4]triazolo[1,5-a]pyridin-6-yl)-3-isopropyl-1H-indole-1-carboxylate] | > 1.39 mg/mL | > 2.93 mg/mL | 0.1 mg/mL (≈ 194 µM) | > 500 h | > 500 h | > 500 h |  | 
4 | Cc1c(-c2c(C(C)C)c3cc(C4CCN(CC(N)=O)CC4)ccc3n2CO)cn2ncnc2c1C [Example 25, 2-(4-(2-(7,8-Dimethyl-[1,2,4]triazolo[1,5-a]pyridin-6-yl)-1-(hydroxymethyl)-3-isopropyl-1H-indol-5-yl)piperidin-1-yl)acetamide] | > 1.41 mg/mL | 1.28 mg/mL (≈ 2700 µM) | 0.01 mg/mL (≈ 21.1 µM) | 179 h | > 500 h | > 500 h |  | 
